From US20220324835A1 (Nurix Therapeutics, Inc., priority 2018, published 2022)

Columns and labels:
Type in all cases: cell-based
[1] = system: primary human total T-cells; assay: T-cell activation assessed by CD69 expression
Procedure, shortened: (§1)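 Primary human T-cells (>95% CD3+, negative selection from PBMC) were pre-incubated with inhibitor (e.g. 10, 1.11, 0.123 μM; DMSO <0.1%) for 1 h at 37 °C. They were then stimulated 48 h with plate-bound OKT3 (coated at 10 μg/mL), alone or with 5 μg/mL soluble anti-CD28. Results are fold change over uninhibited, identically stimulated cells.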

[2] = system: primary human total T-cells; assay: T-cell activation assessed by cell proliferation (Cell Trace Violet)
Procedure, shortened: as §1

[3] = system: primary human total T-cells; assay: T-cell activation assessed by cytokine secretion (GM-CSF, IFNγ, TNFα)
Procedure, shortened: as §1

[4] = CD3/CD28 stimulation, CD4 T-cells, read-out: % CD69+ (CD4)
[5] = CD3/CD28 stimulation, CD8 T-cells, read-out: % CD69+ (CD8)
[6] = CD3 alone stimulation, CD4 T-cells, read-out: % CD69+ (CD4)
[7] = CD3 alone stimulation, CD8 T-cells, read-out: % CD69+ (CD8)
[8] = CD3/CD28 stimulation, CD4 T-cells, read-out: % CP (cell proliferation) (CD4)
[9] = CD3/CD28 stimulation, CD8 T-cells, read-out: % CP (cell proliferation) (CD8)
[10] = CD3 alone stimulation, CD8 T-cells, read-out: % CP (cell proliferation) (CD8)
[11] = CD3/CD28 stimulation, read-out: GM-CSF secretion
[12] = CD3/CD28 stimulation, read-out: IFNγ secretion
[13] = CD3/CD28 stimulation, read-out: TNFα secretion
[14] = CD3 alone stimulation, read-out: GM-CSF secretion
[15] = CD3 alone stimulation, read-out: IFNγ secretion
[16] = CD3 alone stimulation, read-out: TNFα secretion

`Cn1cnnc1C(F)(F)[C@](C)(F)c1cccc(N2Cc3c(cc(CN4CC[C@@H](C#N)C4)cc3C(F)(F)F)C2=O)c1` [Compound 455, (R)-1-((3-oxo-2-(3-((R)-1,1,2-trifluoro-1-(4-methyl-4H-1,2,4-triazol-3-yl)propan-2-yl)phenyl)-7-(trifluoromethyl)isoindolin-5-yl)methyl)pyrrolidine-3-carbonitrile] was tested, and the fold induction at 1.11 µM [1, 4] was 1.2 to 1.4, the fold induction at 10 µM [1, 4] was 1.4 to 1.6 and the fold induction at 1.11 µM [1, 5] was 1.2 to 1.4. For the same compound, the fold induction at 10 µM [1, 5] was 1.2 to 1.4, the fold induction at 1.11 µM [1, 6] was 1.4 to 1.6 and the fold induction at 10 µM [1, 6] was over 1.6. The fold induction at 1.11 µM [1, 7] was 1.2 to 1.4, the fold induction at 10 µM [1, 7] was 1.4 to 1.6 and the fold induction at 1.11 µM [2, 8] was over 4. For the same compound, the fold induction at 10 µM [2, 8] was over 4, the fold induction at 1.11 µM [2, 9] was 3.01 to 4 and the fold induction at 10 µM [2, 9] was over 4. It also gave a fold induction at 1.11 µM [2, 10] of over 4, a fold induction at 10 µM [2, 10] of over 4 and a fold induction at 1.11 µM [3, 11] of 2.01 to 4. For the same compound, the fold induction at 1.11 µM [3, 12] was over 4, the fold induction at 1.11 µM [3, 13] was 2.01 to 4 and the fold induction at 10 µM [3, 11] was over 4. For the same compound, the fold induction at 10 µM [3, 12] was over 4, the fold induction at 10 µM [3, 13] was 2.01 to 4 and the fold induction at 1.11 µM [3, 14] was 1.51 to 2. For the same compound, the fold induction at 1.11 µM [3, 15] was 2.01 to 3, the fold induction at 1.11 µM [3, 16] was at most 1.5 and the fold induction at 10 µM [3, 14] was 2.01 to 4. For the same compound, the fold induction at 10 µM [3, 15] was 3.01 to 4 and the fold induction at 10 µM [3, 16] was 2.01 to 4.
`C[C@H](Cc1nncn1C)c1cccc(NC(=O)c2cc3cc(N4CCNCC4)ccc3cn2)c1` [Compound 472, N-{3-[(2R)-1-(4-methyl-4H-1,2,4-triazol-3-yl)propan-2-yl]phenyl}-6-(piperazin-1-yl)isoquinoline-3-carboxamide] gave a fold induction at 1.11 µM [1, 4] of 1.2 to 1.4, a fold induction at 10 µM [1, 4] of 1.4 to 1.6 and a fold induction at 1.11 µM [1, 5] of at most 1.2. It also gave a fold induction at 10 µM [1, 5] of 1.2 to 1.4, a fold induction at 1.11 µM [1, 6] of 1.4 to 1.6 and a fold induction at 10 µM [1, 6] of 1.4 to 1.6. It also gave a fold induction at 1.11 µM [1, 7] of at most 1.2, a fold induction at 10 µM [1, 7] of 1.2 to 1.4 and a fold induction at 1.11 µM [2, 8] of 3.01 to 4. For the same compound, the fold induction at 10 µM [2, 8] was over 4, the fold induction at 1.11 µM [2, 9] was 2.01 to 3 and the fold induction at 10 µM [2, 9] was 2.01 to 3. The fold induction at 1.11 µM [2, 10] was 2.01 to 3, the fold induction at 10 µM [2, 10] was under 2 and the fold induction at 1.11 µM [3, 11] was 1.51 to 2. The fold induction at 1.11 µM [3, 12] was under 2, the fold induction at 1.11 µM [3, 13] was 1.51 to 2 and the fold induction at 10 µM [3, 11] was 2.01 to 4. It also gave a fold induction at 10 µM [3, 12] of under 2, a fold induction at 10 µM [3, 13] of 1.51 to 2 and a fold induction at 1.11 µM [3, 14] of 1.51 to 2. For the same compound, the fold induction at 1.11 µM [3, 15] was under 2, the fold induction at 1.11 µM [3, 16] was at most 1.5 and the fold induction at 10 µM [3, 14] was 1.51 to 2. For the same compound, the fold induction at 10 µM [3, 15] was under 2 and the fold induction at 10 µM [3, 16] was at most 1.5.
`Cn1cnnc1CC1(c2cccc(N3Cc4c(cc(CN5CCC6(CC6)C5)cc4C(F)(F)F)C3=O)c2)COC1` [Compound 520, 6-((5-azaspiro[2.4]heptan-5-yl)methyl)-2-(3-(3-((4-methyl-4H-1,2,4-triazol-3-yl)methyl)oxetan-3-yl)phenyl)-4-(trifluoromethyl)isoindolin-1-one] gave a fold induction at 1.11 µM [1, 4] of over 1.6, a fold induction at 10 µM [1, 4] of over 1.6 and a fold induction at 1.11 µM [1, 5] of 1.2 to 1.4. For the same compound, the fold induction at 10 µM [1, 5] was 1.2 to 1.4, the fold induction at 1.11 µM [1, 6] was over 1.6 and the fold induction at 10 µM [1, 6] was over 1.6. It also gave a fold induction at 1.11 µM [1, 7] of 1.4 to 1.6, a fold induction at 10 µM [1, 7] of 1.4 to 1.6 and a fold induction at 1.11 µM [2, 8] of over 4. For the same compound, the fold induction at 10 µM [2, 8] was over 4, the fold induction at 1.11 µM [2, 9] was over 4 and the fold induction at 10 µM [2, 9] was over 4. It also gave a fold induction at 1.11 µM [2, 10] of over 4, a fold induction at 10 µM [2, 10] of over 4 and a fold induction at 1.11 µM [3, 11] of over 4. For the same compound, the fold induction at 1.11 µM [3, 12] was over 4, the fold induction at 1.11 µM [3, 13] was 2.01 to 4 and the fold induction at 10 µM [3, 11] was over 4. The fold induction at 10 µM [3, 12] was over 4, the fold induction at 10 µM [3, 13] was over 4 and the fold induction at 1.11 µM [3, 14] was 2.01 to 4. For the same compound, the fold induction at 1.11 µM [3, 15] was over 4, the fold induction at 1.11 µM [3, 16] was 2.01 to 4 and the fold induction at 10 µM [3, 14] was over 4. It also gave a fold induction at 10 µM [3, 15] of over 4 and a fold induction at 10 µM [3, 16] of 2.01 to 4.
